Assay results as given in PMC10174317, “^18F-labeled FGFR1 peptide: a new PET probe for subtype FGFR1 receptor imaging” (Frontiers in Oncology, 2023).
Where a SMILES comes first, the peptide text is derived from it. The star is where a group is joined. NOTA = O=C(O)CN1CCN(CC(=O)O)CCN(CC(=O)*)CC1; AEEA = NCCOCCOCC(=O)O

Assays:
[1] = In vitro stability in normal saline (RP-HPLC); format: physicochemical; settings: 37°C, 1, 2, 4 and 6 h
Experimental: The in vitro and in vivo stability of [^18F]F-FGFR1 was evaluated by RP-HPLC analysis. […] The radiochemical purity of the final compounds was determined by RP-HPLC.

[2] = In vivo radiochemical stability, urine of xenograft nude mice (RP-HPLC); settings: urine of xenograft nude mice 60 min after injection of 7.4 MBq; one peak at 5.7 min; fluorine-18 at 4 min
Experimental: For the in vivo radiochemical stability experiment, urine samples were obtained from xenograft nude mice 60 min after injection of 150 µl (7.4 MBq, 2.53 GBq/μmol) [^18F]F-FGFR1 and analyzed by RP-HPLC.

[3] = Micro-PET/CT biodistribution in RT-112 xenografts; format: in vivo, BALB/c nude mice; settings: female, BALB/c nude, mouse, iv, total radioactivity, 11.1 MBq tail vein, micro-PET/CT ROI, mean ± SD; for tissue uptake at 0.5 h: 30 min post-injection; for tissue uptake at 1 h: 60 min post-injection; for tissue uptake at 2 h: 120 min post-injection
Experimental: (§1) All animal experiments were carried out in accordance with the Laboratory Animal Ethical Review of Animal Guidelines of China. BALB/c nude mice (sex, female; age, 4 weeks, body weight range, 19-21 g; China) were used for this study. Four cell lines (2*10^7 cells/nude mouse) were subcutaneously injected into the right forelimb to induce solid tumors. All xenograft nude mice were housed in laminar flow cabinets in a specific pathogen-free (SPF) environment and were provided ad libitum access to food and water at the Laboratory Animal Center of the Fourth Hospital of Hebei Medical University (China). The indication for micro-PET/CT imaging was xenografts with a tumor volume of 50-130 mm^3. All animal experiments strictly adhered to the Principles of the Laboratory Animal Ethical Committee of the Fourth Hospital Hebei Medical University (No. 2020016).
(§2) Xenograft mice (n=5) were fastly injected of 200 µl of [^18F]F-FGFR1 (11.1 MBq) through tail vein. For the in vivo blocking study, RT-112 (FGFR1-high expression) tumor-bearing mice (n = 5) were injected with a tracer that was mixed with 200-fold (1.58 mg) unlabeled peptide to saturate the receptors in the tumors. Mice were anesthetized via 3% isoflurane inhalation (RWD Life Science Inc. China) for induction and 2% isoflurane inhalation for maintenance. Micro-PET/CT imaging was performed on a micro-PET/SPECT/CT machine (NOVEL MEDICAL Equipment Ltd. China). Whole-body scans were performed 30, 60 and 120 min after tracer administration. The CT scanning parameters were 80 kV, 0.5 mA, 2000 ms/frames, and 360 frames; the images were reconstructed with a 512*512 matrix and a slice thickness of 0.18 mm. PET images were acquired with a 140*140 matrix and 10 min of total acquisition time. Reconstructed images were processed with the comprehensive image analysis software Pmod v4.201 (PMOD Technologies LLC. Switzerland). The biodistribution of the major organs (brain, heart, lung, liver, kidney, bone and muscle) and tumor were analyzed by manually outlining the regions of interest (ROIs) of the entire organs and tissue at each time point of the micro-PET/CT scan. The radioactivity accumulated in bone and muscle was measured in the limbs without xenograft tumors.

[4] = Micro-PET/CT biodistribution in SNU-16 xenografts; format: in vivo, BALB/c nude mice; settings: female, BALB/c nude, mouse, iv, total radioactivity, 11.1 MBq tail vein, micro-PET/CT ROI, mean ± SD; for tissue uptake at 0.5 h: 30 min post-injection; for tissue uptake at 1 h: 60 min post-injection; for tissue uptake at 2 h: 120 min post-injection
Experimental: as §1, §2

[5] = Micro-PET/CT biodistribution in RT-112-blocked xenografts; format: in vivo, BALB/c nude mice; settings: female, BALB/c nude, mouse, iv, total radioactivity, n=5; for tissue uptake at 0.5 h / tissue uptake at 1 h / tissue uptake at 2 h: RT-112-blocked xenografts (tracer mixed with 200-fold, 1.58 mg, unlabeled peptide), 11.1 MBq tail vein, micro-PET/CT ROI, mean ± SD; for tissue uptake at 0.5 h: 30 min post-injection; for tissue uptake at 1 h: 60 min post-injection
Experimental: as §1, §2

[6] = bone, n=5, read-out: Biodistribution, Bone
[7] = brain, n=5, read-out: Biodistribution, Brain
[8] = heart, n=5, read-out: Biodistribution, Heart
[9] = kidney, n=5, read-out: Biodistribution, Kidney
[10] = liver, n=5, read-out: Biodistribution, Liver
[11] = lung, n=5, read-out: Biodistribution, Lung
[12] = muscle, n=5, read-out: Biodistribution, Muscle
[13] = tumor, n=5, read-out: Biodistribution, Tumor
[14] = bone, read-out: Biodistribution, Bone
[15] = brain, read-out: Biodistribution, Brain
[16] = heart, read-out: Biodistribution, Heart
[17] = kidney, read-out: Biodistribution, Kidney
[18] = liver, read-out: Biodistribution, Liver
[19] = lung, read-out: Biodistribution, Lung
[20] = muscle, read-out: Biodistribution, Muscle
[21] = tumor, read-out: Biodistribution, Tumor

- Radiochemical purity after incubation (in vitro stability) [1]: exceeded 90%
- In vivo radiochemical stability (RP-HPLC of urine) [2]: no peak corresponded to fluorine-18
- tissue uptake at 0.5 h [3, 6]: 0.33 ± 0.1 %ID/g
- tissue uptake at 1 h [3, 6]: 0.35 ± 0.12 %ID/g
- tissue uptake at 2 h [3, 6]: 0.48 ± 0.23 %ID/g
- tissue uptake at 0.5 h [3, 7]: 0.66 ± 0.05 %ID/g
- tissue uptake at 1 h [3, 7]: 0.69 ± 0.03 %ID/g
- tissue uptake at 2 h [3, 7]: 0.03 ± 0.01 %ID/g
- tissue uptake at 0.5 h [3, 8]: 1.02 ± 0.11 %ID/g
- tissue uptake at 1 h [3, 8]: 0.75 ± 0.06 %ID/g
- tissue uptake at 2 h [3, 8]: 0.1 ± 0.03 %ID/g
- tissue uptake at 0.5 h [3, 9]: 9.44 ± 0.58 %ID/g
- tissue uptake at 1 h [3, 9]: 6.85 ± 0.77 %ID/g
- tissue uptake at 2 h [3, 9]: 19 ± 4.82 %ID/g
- tissue uptake at 0.5 h [3, 10]: 1.35 ± 0.23 %ID/g
- tissue uptake at 1 h [3, 10]: 1.43 ± 0.06 %ID/g
- tissue uptake at 2 h [3, 10]: 0.17 ± 0.08 %ID/g
- tissue uptake at 0.5 h [3, 11]: 0.75 ± 0.11 %ID/g
- tissue uptake at 1 h [3, 11]: 0.65 ± 0.09 %ID/g
- tissue uptake at 2 h [3, 11]: 0.14 ± 0.05 %ID/g
- tissue uptake at 0.5 h [3, 12]: 0.24 ± 0.05 %ID/g
- tissue uptake at 1 h [3, 12]: 0.28 ± 0.03 %ID/g
- tissue uptake at 2 h [3, 12]: 0.09 ± 0.02 %ID/g
- tissue uptake at 0.5 h [3, 13]: 3.84 ± 0.17 %ID/g
- tissue uptake at 1 h [3, 13]: 2.6 ± 0.1 %ID/g
- tissue uptake at 2 h [3, 13]: 1.35 ± 0.07 %ID/g
- tissue uptake at 0.5 h [4, 6]: 0.38 ± 0.1 %ID/g
- tissue uptake at 1 h [4, 6]: 0.37 ± 0.05 %ID/g
- tissue uptake at 2 h [4, 6]: 0.41 ± 0.02 %ID/g
- tissue uptake at 0.5 h [4, 7]: 0.56 ± 0.06 %ID/g
- tissue uptake at 1 h [4, 7]: 0.6 ± 0.07 %ID/g
- tissue uptake at 2 h [4, 7]: 0.56 ± 0.1 %ID/g
- tissue uptake at 0.5 h [4, 8]: 0.7 ± 0.09 %ID/g
- tissue uptake at 1 h [4, 8]: 0.62 ± 0.09 %ID/g
- tissue uptake at 2 h [4, 8]: 0.55 ± 0.06 %ID/g
- tissue uptake at 0.5 h [4, 9]: 8.04 ± 0.97 %ID/g
- tissue uptake at 1 h [4, 9]: 7.43 ± 0.83 %ID/g
- tissue uptake at 2 h [4, 9]: 4.23 ± 0.7 %ID/g
- tissue uptake at 0.5 h [4, 10]: 1.54 ± 0.11 %ID/g
- tissue uptake at 1 h [4, 10]: 1.57 ± 0.12 %ID/g
- tissue uptake at 2 h [4, 10]: 1.45 ± 0.1 %ID/g
- tissue uptake at 0.5 h [4, 11]: 0.67 ± 0.08 %ID/g
- tissue uptake at 1 h [4, 11]: 0.6 ± 0.03 %ID/g
- tissue uptake at 2 h [4, 11]: 0.46 ± 0.09 %ID/g
- tissue uptake at 0.5 h [4, 12]: 0.27 ± 0.06 %ID/g
- tissue uptake at 1 h [4, 12]: 0.27 ± 0.03 %ID/g
- tissue uptake at 2 h [4, 12]: 0.31 ± 0.02 %ID/g
- tissue uptake at 0.5 h [4, 13]: 0.66 ± 0.05 %ID/g
- tissue uptake at 1 h [4, 13]: 0.6 ± 0.06 %ID/g
- tissue uptake at 2 h [4, 13]: 0.45 ± 0.04 %ID/g
- tissue uptake at 0.5 h [5, 14]: 0.31 ± 0.07 %ID/g
- tissue uptake at 1 h [5, 14]: 0.37 ± 0.04 %ID/g
- tissue uptake at 2 h ([5]; bone, 120 min post-injection, read-out: Biodistribution, Bone): 0.35 ± 0.07 %ID/g
- tissue uptake at 0.5 h [5, 15]: 0.61 ± 0.03 %ID/g
- tissue uptake at 1 h [5, 15]: 0.61 ± 0.06 %ID/g
- tissue uptake at 2 h ([5]; brain, 120 min post-injection, read-out: Biodistribution, Brain): 0.71 ± 0.1 %ID/g
- tissue uptake at 0.5 h [5, 16]: 0.74 ± 0.08 %ID/g
- tissue uptake at 1 h [5, 16]: 0.7 ± 0.07 %ID/g
- tissue uptake at 2 h ([5]; heart, 120 min post-injection, read-out: Biodistribution, Heart): 0.75 ± 0.14 %ID/g
- tissue uptake at 0.5 h [5, 17]: 9.35 ± 0.82 %ID/g
- tissue uptake at 1 h [5, 17]: 7.31 ± 0.87 %ID/g
- tissue uptake at 2 h ([5]; kidney, 120 min post-injection, read-out: Biodistribution, Kidney): 3.37 ± 0.54 %ID/g
- tissue uptake at 0.5 h [5, 18]: 0.67 ± 0.16 %ID/g
- tissue uptake at 1 h [5, 18]: 0.51 ± 0.09 %ID/g
- tissue uptake at 2 h ([5]; liver, 120 min post-injection, read-out: Biodistribution, Liver): 0.5 ± 0.09 %ID/g
- tissue uptake at 0.5 h [5, 19]: 0.6 ± 0.05 %ID/g
- tissue uptake at 1 h [5, 19]: 0.59 ± 0.04 %ID/g
- tissue uptake at 2 h ([5]; lung, 120 min post-injection, read-out: Biodistribution, Lung): 0.51 ± 0.07 %ID/g
- tissue uptake at 0.5 h [5, 20]: 0.26 ± 0.03 %ID/g
- tissue uptake at 1 h [5, 20]: 0.29 ± 0.03 %ID/g
- tissue uptake at 2 h ([5]; muscle, 120 min post-injection, read-out: Biodistribution, Muscle): 0.27 ± 0.02 %ID/g
- tissue to tissue ratio at 2 h ([5]; tumor and liver, RT-112-blocked xenografts (200-fold unlabeled peptide), 120 min post-injection, micro-PET/CT, read-out: Tumor to liver ratio (T/L)): 0.85 ± 0.22
- tissue uptake at 0.5 h [5, 21]: 0.4 ± 0.02 %ID/g
- tissue uptake at 1 h [5, 21]: 0.39 ± 0.03 %ID/g
- tissue uptake at 2 h ([5]; tumor, 120 min post-injection, read-out: Biodistribution, Tumor): 0.4 ± 0.02 %ID/g
SMILES: CC(C)C[C@H](NC(=O)[C@H](CO)NC(=O)[C@H](CCCCN)NC(=O)[C@H](Cc1c[nH]c2ccccc12)NC(=O)[C@H](CCC(=O)O)NC(=O)[C@H](C)NC(=O)[C@H](CCCCN)NC(=O)COCCOCCNC(=O)CN1CCN(CC(=O)O)CCN(CC(=O)O)CC1)C(=O)NCC(=O)N[C@@H](CCC(=O)O)C(=O)N[C@@H](CCC(=O)O)C(=O)N[C@@H](C)C(=O)N[C@@H](Cc1c[nH]c2ccccc12)C(=O)N[C@@H](Cc1c[nH]cn1)C(=O)N[C@@H](CO)C(=O)N[C@@H](CCCCN)C(=O)O [[^18F]F-FGFR1] ({NOTA-AEEA}-KAEWKSLGEEAWHSK-OH; N-terminus and C-terminus assumed)
